Columns and labels:
Assay type in all cases: in vivo
[1] = system: giant foxtail (Setaria faberii); assay: Test A preemergence; conditions: for Plant response rating, Foxtail, Giant: 125 g ai/ha, preemergence, 0 to 100 scale (0 no effect, 100 complete control); for Foxtail, Giant plant response rating (0 to 100 scale, 0 is no effect, 100 is complete control): Preemergence, 500 g ai/ha, visual injury approx. 10 d
How it was run: (§1)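 Seeds sprayed preemergence with a directed soil spray, or plants at 2 to 10 cm height and one- to two-leaf stage sprayed postemergence, with test chemicals in a non-phytotoxic solvent mixture containing surfactant, in loam soil–sand blend. Injury rated visually against untreated controls after about 10 d in greenhouse, 0 (no effect) to 100 (complete control).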

[2] = system: barnyardgrass (Echinochloa crus-galli); assay: Test A preemergence; conditions: for Plant response rating, Barnyardgrass: 125 g ai/ha, preemergence, 0 to 100 scale (0 no effect, 100 complete control); for Barnyardgrass plant response rating (0 to 100 scale, 0 is no effect, 100 is complete control): Preemergence, 500 g ai/ha, visual injury approx. 10 d
How it was run: as §1

[3] = system: ryegrass, Italian (Italian ryegrass, Lolium multiflorum); assay: Test A preemergence; conditions: for Plant response rating, Ryegrass, Italian: 125 g ai/ha, preemergence, 0 to 100 scale (0 no effect, 100 complete control); for Ryegrass, Italian plant response rating (0 to 100 scale, 0 is no effect, 100 is complete control): Preemergence, 500 g ai/ha, visual injury approx. 10 d
How it was run: as §1

[4] = system: ragweed (common ragweed, Ambrosia elatior); assay: Test A preemergence; conditions: for Ragweed plant response rating (0 to 100 scale, 0 is no effect, 100 is complete control): Preemergence, 500 g ai/ha, visual injury approx. 10 d
How it was run: as §1

Kochia (Kochia scoparia) [5] = assay: Test A preemergence; conditions: for Plant response rating, Kochia: 125 g ai/ha, preemergence, 0 to 100 scale (0 no effect, 100 complete control); for Kochia plant response rating (0 to 100 scale, 0 is no effect, 100 is complete control): Preemergence, 500 g ai/ha, visual injury approx. 10 d
How it was run: as §1

[6] = system: pigweed (Amaranthus retroflexus); assay: Test A preemergence; conditions: for Plant response rating, Pigweed: 125 g ai/ha, preemergence, 0 to 100 scale (0 no effect, 100 complete control); for Pigweed plant response rating (0 to 100 scale, 0 is no effect, 100 is complete control): Preemergence, 500 g ai/ha, visual injury approx. 10 d
[7] = system: barnyardgrass (Echinochloa crus-galli); assay: Test B flooded paddy test; conditions: Flood, 0 to 100 scale where 0 is no effect and 100 is complete control, 13 to 15 d
How it was run: (§2)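 Evaluation by eye, against controls, occurred 13–15 d post-treatment in a greenhouse, using a 0 (no effect) to 100 (complete control) scale. Application was into the paddy water, 3 cm deep over the soil, on 2-leaf plants.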

[8] = system: sedge, umbrella (small-flower umbrella sedge, Cyperus difformis); assay: Test B flooded paddy test; conditions: Flood, 0 to 100 scale where 0 is no effect and 100 is complete control, 13 to 15 d
How it was run: as §2

rice (Oryra sativa) = assay: Test B flooded paddy test; conditions: Flood, 0 to 100 scale where 0 is no effect and 100 is complete control, 13 to 15 d
How it was run: as §2

[9] = system: ducksalad (Heteranthera limosa); assay: Test B flooded paddy test; conditions: Flood, 0 to 100 scale where 0 is no effect and 100 is complete control, 13 to 15 d
How it was run: as §2

[10] = system: giant foxtail (Setaria faberii); assay: Test A postemergence; conditions: postemergence; for Foxtail, Giant plant response rating: 125 g ai/ha, visual injury rating on 0 to 100 scale (0 no effect, 100 complete control), approx. 10 d; for Plant response rating, Foxtail, Giant: 500 g ai/ha, 0 to 100 scale, 0 no effect, 100 complete control
How it was run: as §1

[11] = system: barnyardgrass (Echinochloa crus-galli); assay: Test A postemergence; conditions: postemergence; for Barnyardgrass plant response rating: 125 g ai/ha, visual injury rating on 0 to 100 scale (0 no effect, 100 complete control), approx. 10 d; for Plant response rating, Barnyardgrass: 500 g ai/ha, 0 to 100 scale, 0 no effect, 100 complete control
How it was run: as §1

[12] = system: ryegrass, Italian (Italian ryegrass, Lolium multiflorum); assay: Test A postemergence; conditions: postemergence; for Ryegrass, Italian plant response rating: 125 g ai/ha, visual injury rating on 0 to 100 scale (0 no effect, 100 complete control), approx. 10 d; for Plant response rating, Ryegrass, Italian: 500 g ai/ha, 0 to 100 scale, 0 no effect, 100 complete control
How it was run: as §1

[13] = system: blackgrass (Alopecurus myosuroides); assay: Test A postemergence; conditions: postemergence; for Blackgrass plant response rating: 125 g ai/ha, visual injury rating on 0 to 100 scale (0 no effect, 100 complete control), approx. 10 d; for Plant response rating, Blackgrass: 500 g ai/ha, 0 to 100 scale, 0 no effect, 100 complete control
How it was run: as §1

[14] = system: Galium (catchweed bedstraw, Galium aparine); assay: Test A postemergence; conditions: postemergence; for Galium plant response rating: 125 g ai/ha, visual injury rating on 0 to 100 scale (0 no effect, 100 complete control), approx. 10 d; for Plant response rating, Galium: 500 g ai/ha, 0 to 100 scale, 0 no effect, 100 complete control
How it was run: as §1

[15] = system: ragweed (common ragweed, Ambrosia elatior); assay: Test A postemergence; conditions: postemergence; for Ragweed plant response rating: 125 g ai/ha, visual injury rating on 0 to 100 scale (0 no effect, 100 complete control), approx. 10 d; for Plant response rating, Ragweed: 500 g ai/ha, 0 to 100 scale, 0 no effect, 100 complete control
How it was run: as §1

Kochia (Kochia scoparia) [16] = assay: Test A postemergence; conditions: postemergence; for Kochia plant response rating: 125 g ai/ha, visual injury rating on 0 to 100 scale (0 no effect, 100 complete control), approx. 10 d; for Plant response rating, Kochia: 500 g ai/ha, 0 to 100 scale, 0 no effect, 100 complete control
How it was run: as §1

[17] = system: pigweed (Amaranthus retroflexus); assay: Test A postemergence; conditions: postemergence; for Pigweed plant response rating: 125 g ai/ha, visual injury rating on 0 to 100 scale (0 no effect, 100 complete control), approx. 10 d; for Plant response rating, Pigweed: 500 g ai/ha, 0 to 100 scale, 0 no effect, 100 complete control
How it was run: as §1

[18] = system: wheat (Triticum aestivum); assay: Test A postemergence; conditions: postemergence; for Wheat plant response rating: 125 g ai/ha, visual injury rating on 0 to 100 scale (0 no effect, 100 complete control), approx. 10 d; for Plant response rating, Wheat: 500 g ai/ha, 0 to 100 scale, 0 no effect, 100 complete control
How it was run: as §1

corn (Zea mays) = assay: Test A postemergence; conditions: postemergence; for Corn plant response rating: 125 g ai/ha, visual injury rating on 0 to 100 scale (0 no effect, 100 complete control), approx. 10 d; for Plant response rating, Corn: 500 g ai/ha, 0 to 100 scale, 0 no effect, 100 complete control
How it was run: as §1

Compound	Plant response rating, Foxtail, Giant [1]	Foxtail, Giant plant response rating (0 to 100 scale, 0 is no effect, 100 is complete control) [1]	Plant response rating, Barnyardgrass [2]	Barnyardgrass plant response rating (0 to 100 scale, 0 is no effect, 100 is complete control) [2]	Plant response rating, Ryegrass, Italian [3]	Ryegrass, Italian plant response rating (0 to 100 scale, 0 is no effect, 100 is complete control) [3]	Ragweed plant response rating (0 to 100 scale, 0 is no effect, 100 is complete control) [4]	Plant response rating, Kochia (Kochia (Kochia scoparia) [5])	Kochia plant response rating (0 to 100 scale, 0 is no effect, 100 is complete control) (Kochia (Kochia scoparia) [5])	Plant response rating, Pigweed [6]	Pigweed plant response rating (0 to 100 scale, 0 is no effect, 100 is complete control) [6]	Foxtail, Giant plant response rating [10]	Plant response rating, Foxtail, Giant [10]	Barnyardgrass plant response rating [11]	Plant response rating, Barnyardgrass [11]	Ryegrass, Italian plant response rating [12]	Plant response rating, Ryegrass, Italian [12]	Blackgrass plant response rating [13]	Plant response rating, Blackgrass [13]	Galium plant response rating [14]	also measured
Cc1cc(NC(=O)C2C(=O)NCC2c2ccc(F)c(F)c2)ccc1C(F)(F)F (centres unmarked) [Compound 414]	0	10	0	0	0	0	0	0	0	0	0	0	0	0	0	0	0	0	0	0	Plant response rating, Ragweed ([4]; 125 g ai/ha, preemergence, 0 to 100 scale (0 no effect, 100 complete control)): 0; Plant response rating, Barnyardgrass ([7]; 500 g ai/ha): 0; Plant response rating, Sedge, Umbrella ([8]; 500 g ai/ha): 0; Plant response rating, Rice (rice (Oryra sativa); 500 g ai/ha): 0; Plant response rating, Ducksalad ([9]; 500 g ai/ha): 40; Plant response rating, Galium [14]: 0; Ragweed plant response rating [15]: 0; Plant response rating, Ragweed [15]: 0; Kochia plant response rating (Kochia (Kochia scoparia) [16]): 0; Plant response rating, Kochia (Kochia (Kochia scoparia) [16]): 10; Pigweed plant response rating [17]: 0; Plant response rating, Pigweed [17]: 0; Wheat plant response rating [18]: 0; Plant response rating, Wheat [18]: 0; Corn plant response rating (corn (Zea mays)): 0; Plant response rating, Corn (corn (Zea mays)): 0
Cc1cc(C2CN(C)C(=O)C2C(=O)Nc2ccccc2F)ccc1F (centres unmarked) [Compound 402]	90	90	90	90	20	40	70	40	70	30	50	90	90	90	90	30	50	50	70	50	Plant response rating, Barnyardgrass ([7]; 250 g ai/ha): 100; Plant response rating, Sedge, Umbrella ([8]; 250 g ai/ha): 0; Plant response rating, Rice (rice (Oryra sativa); 250 g ai/ha): 0; Plant response rating, Ducksalad ([9]; 250 g ai/ha): 90; Plant response rating, Galium [14]: 60; Ragweed plant response rating [15]: 20; Plant response rating, Ragweed [15]: 60; Kochia plant response rating (Kochia (Kochia scoparia) [16]): 20; Plant response rating, Kochia (Kochia (Kochia scoparia) [16]): 60; Pigweed plant response rating [17]: 40; Plant response rating, Pigweed [17]: 50; Wheat plant response rating [18]: 50; Plant response rating, Wheat [18]: 80; Corn plant response rating (corn (Zea mays)): 70; Plant response rating, Corn (corn (Zea mays)): 80

From US12077503B2, “Substituted cyclic amides and their use as herbicides” (FMC CORPORATION, priority 2015, dated 2024)
